# Experimental data from patent publication US20070135470A1, “Utilization of vinpocetine to avoid complications in particular those associated to hearing which occur with epilepsy, and treatment thereof” (UNIVERSIDAD NACIONAL AUTONOMA DE MEXICO, priority 2003, published 2007).
# How the values were obtained:
# [1] = tested on: epilepsy induced by PTZ in guinea pigs; assay: ABR wave parameters (amplitude, latency) in PTZ-induced epilepsy; type: in vivo, guinea pig; conditions: 100 dB
# Description: Experiments were performed in pigmented adult male guinea pigs initially weighing 349±38 g. ABRs recordings were used to evaluate the hearing status of each animal and EEG recordings to evaluate changes in cortical excitability. The ABR and EEG recordings were obtained following a method that we have previously reported (Nekrassov and Sitges, 2003). The Institutional Animal Use and Care Committee approved all experimental procedures.
# Three types of recordings were performed in the anaesthetized animals, namely the ABR recordings elicited by a stimulus of high intensity (100 dB), the ABR recordings for determination of the auditory threshold and the EEG recordings.
# Determination of ABR wave parameters. The latency and amplitude of each wave component of the ABR elicited by a stimulus of 100 dB with pure tone frequencies of 4 and 8 kHz was measured in all the ABR recordings obtained under the different experimental conditions at the specified times. The latency of each ABR wave (in ms) refers to the time interval between the onset of the auditory stimulus and the positive peak of the wave. The onset of the stimulus is indicated by the vertical arrow at the bottom of the recordings on FIG. 1. The peak amplitude (in μV) of each wave of the ABR is the difference between the positive peak of the wave and the reference baseline (trace between the stimulus and the appearance of the first ABR wave on FIG. 1).
# Student's t-test was used for the evaluation of the differences between results obtained before and at the specified times after the injection of the convulsing agents. The criterion for statistical significance for all measures was P≦0.05. All data are expressed as means±standard error of the mean. In figures and tables the symbol * is used for indicating statistic significant differences.
# Eight male guinea pigs were entered into this study. PTZ was dissolved in saline and vinpocetine in a saline acidified (with HCl) adjusted to pH 4 (with NaOH). Four hours after injecting guinea pigs with vehicle (acidified saline used to dissolve vinpocetine) the animals were anaesthetized and a first set of ABR and EEG recordings was taken before the injection (i.p) of the convulsing agent, PTZ. The animals were injected with PTZ (100 mg/kg) and about 2 min after injecting PTZ (ictal period) the EEG recording was taken. Then the other series of ABR and EEG recordings were taken at specific times within the post-ictal period. After two weeks the same series of recordings was taken but instead vehicle the animals were injected with vinpocetine (2 mg/kg) 4 hours before the injection of PTZ.
# [2] = tested on: guinea pig treated with amikacin; conditions: high dose of amikacin; Nekrassov and Sitges 2000; cited from earlier work
structure (smiles),measurement,setting,value
"CCOC(=O)C1=C[C@]2(CC)CCCN3CCc4c(n1c1ccccc41)[C@@H]32 [Vinpocetine, ethyl apovincamine-22-oate]","effect on the increase in latencies of the ABR waves P2, P3 and P4 produced by PTZ","[1]; 4 and 8 kHz, vinpocetine 2 mg/kg 4 h before PTZ, FIG. 2",inhibits the increase
same,P4 wave peak amplitude of the ABR,"[1]; 4 kHz, 10 min after PTZ 100 mg/kg i.p., vinpocetine 2 mg/kg or vehicle 4 h before PTZ",2.55 ± 0.3 μV
same,P4 wave peak amplitude of the ABR,"[1]; 4 kHz, 20 min after PTZ 100 mg/kg i.p., vinpocetine 2 mg/kg or vehicle 4 h before PTZ",2.52 ± 0.2 μV
same,P4 wave peak amplitude of the ABR,"[1]; 4 kHz, 30 min after PTZ 100 mg/kg i.p., vinpocetine 2 mg/kg or vehicle 4 h before PTZ",2.55 ± 0.2 μV
same,P4 wave peak amplitude of the ABR,"[1]; 4 kHz, 50 min after PTZ 100 mg/kg i.p., vinpocetine 2 mg/kg or vehicle 4 h before PTZ",2.52 ± 0.2 μV
same,P4 wave peak amplitude of the ABR,"[1]; 4 kHz, before PTZ injection, 4 h after vinpocetine 2 mg/kg, mean±SEM, 8 animals",2.82 ± 0.3 μV
same,P4 wave peak amplitude of the ABR,"[1]; 8 kHz, 10 min after PTZ 100 mg/kg i.p., vinpocetine 2 mg/kg or vehicle 4 h before PTZ",2.56 ± 0.1 μV
same,P4 wave peak amplitude of the ABR,"[1]; 8 kHz, 20 min after PTZ 100 mg/kg i.p., vinpocetine 2 mg/kg or vehicle 4 h before PTZ",2.71 ± 0.2 μV
same,P4 wave peak amplitude of the ABR,"[1]; 8 kHz, 30 min after PTZ 100 mg/kg i.p., vinpocetine 2 mg/kg or vehicle 4 h before PTZ",2.55 ± 0.2 μV
same,P4 wave peak amplitude of the ABR,"[1]; 8 kHz, 50 min after PTZ 100 mg/kg i.p., vinpocetine 2 mg/kg or vehicle 4 h before PTZ",2.56 ± 0.1 μV
same,P4 wave peak amplitude of the ABR,"[1]; 8 kHz, before PTZ injection, 4 h after vinpocetine 2 mg/kg, mean±SEM, 8 animals",2.69 ± 0.1 μV
same,"protective action over changes in ABR waves, hearing loss and mortality induced by amikacin",[2],long term (more than half a year) protective action
